According to patent publication US8575135B2 (Gilead Sciences, Inc., priority 2011, dated 2013):
Read-outs that look alike come from different tables or passages of the source.

Tests used:
Assay in all cases: microbe, parasite or virus in culture
Details in all cases: Hepatitis C virus
[1] = tested on: NS5A chimeric genotype 1b Con1 replicon with genotype 4a ED43 strain NS5A gene; assay type: cell-based, HCV
[2] = tested on: stable HCV 1a RLuc replicon cells (genotype 1a H77 replicon); assay type: cell-based
[3] = tested on: NS5A chimeric genotype 2a JFH-1 replicon with genotype 2b MD2b-1 strain NS5A gene (M31 present); assay type: cell-based, HCV
Method in brief: (§1)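 Con1-based 3a and 4a chimeras carried a Pi-RLuc reporter and were transiently transfected into Huh-Lunet cells; the JFH-1-based 2b chimera (RLuc-Neo) was used transiently or as stable replicon cells.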

[4] = tested on: NS5A chimeric genotype 1b Con1 replicon with genotype 3a S52 strain NS5A gene; assay type: cell-based, HCV
Method in brief: as §1

[5] = tested on: NS5A chimeric genotype 2a JFH-1 replicon with genotype 2a J6 strain NS5A gene (M31 present); assay type: cell-based, HCV
[6] = tested on: stable HCV 2a JFH-1 Rluc replicon cells (L31 present in NS5A); assay type: cell-based
[7] = tested on: 1a Pi-Rluc replicon with Q30R in genotype 1a NS5A; assay type: cell-based, HCV
Method in brief: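 Renilla luciferase replicon assay: 1a Pi-RLuc replicon carrying NS5A Q30R, transfected transiently into cured-51 (Huh-7-derived) cells.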

Row | SMILES | EC50 ([1]; read-out: 4a) | EC50 ([1]; read-out: 4a (s) (nM)) | EC50 ([1]; read-out: 4a (t) (nM)) | EC50 ([2]; read-out: 1a) | EC50 ([2]; read-out: 1a (nM)) | EC50 ([3]; read-out: 2b) | EC50 ([3]; read-out: 2b (s) (nM)) | EC50 ([3]; read-out: 2b (t) (nM)) | EC50 ([4]; read-out: 3a) | EC50 ([4]; read-out: 3a (nM)) | EC50 ([5]; read-out: 2a J6) | EC50 ([5]; read-out: 2a J6 (s) (nM)) | EC50 ([5]; read-out: 2a Jb (t) (nM)) | EC50 ([6]; read-out: 2a JFH) | EC50 ([6]; read-out: 2a JFH (nM)) | EC50 ([7]; read-out: 1a Q30R) | EC50 ([7]; read-out: 1a Q30R (nM))
1 | COC(=O)N[C@H](C(=O)N1C[C@@H](C)C[C@H]1c1nc2ccc3cc4c(cc3c2[nH]1)OCc1cc(-c2cnc([C@@H]3CCCN3C(=O)[C@H](NC(=O)OC)c3ccccc3)[nH]2)ccc1-4)C(C)C [Example NB, Methyl {(1R)-2-[(2S)-2-(5-{2-[(2S,4S)-1-{(2S)-2-[(methoxycarbonyl)amino]-3-methylbutanoyl}-4-methylpyrrolidin-2-yl]-1,11-dihydroisochromeno[4′,3′:6,7]naphtho[1,2-d]imidazol-9-yl}-1H-imidazol-2-yl)pyrrolidin-1-yl]-2-oxo-1-phenylethyl}carbamate] | < 1 nM | 0.025 nM | 0.023 nM | < 1 nM | 0.01 nM | < 1 nM | 0.039 nM | 0.007 nM | < 1 nM | 0.011 nM | < 1 nM | 0.138 nM | 0.02 nM | < 1 nM | 0.004 nM | < 1 nM | 0.034 nM
2 | COC(=O)N[C@H](C(=O)N1C[C@@H](C)C[C@H]1c1nc2ccc3cc4c(cc3c2[nH]1)OCc1cc(-c2cnc([C@@H]3CC[C@H](C)N3C(=O)[C@@H](NC(=O)OC)C(C)C)[nH]2)ccc1-4)C(C)C [Example NC, Methyl {(2S)-1-[(2S,5S)-2-(5-{2-[(2S,4S)-1-{(2S)-2-[(methoxycarbonyl)amino]-3-methylbutanoyl}-4-methylpyrrolidin-2-yl]-1,11-dihydroisochromeno[4′,3′:6,7]naphtho[1,2-d]imidazol-9-yl}-1H-imidazol-2-yl)-5-methylpyrrolidin-1-yl]-3-methyl-1-oxobutan-2-yl}carbamate] | < 1 nM | 0.026 nM | 0.011 nM | < 1 nM | 0.007 nM | < 1 nM | 0.191 nM | 0.068 nM | < 1 nM | 0.014 nM | < 1 nM | 0.762 nM | 0.089 nM | < 1 nM | 0.005 nM | < 1 nM | 0.06 nM
3 | COC(=O)N[C@H](C(=O)N1C[C@@H](C)C[C@H]1c1ncc(-c2ccc3c(c2)COc2cc4c(ccc5nc([C@@H]6C[C@H](C)CN6C(=O)[C@@H](NC(=O)OC)C(C)C)[nH]c54)cc2-3)[nH]1)C(C)C [Example ND, Methyl {(2S)-1-[(2S,5S)-2-(5-{2-[(2S,4S)-1-{(2S)-2-[(methoxycarbonyl)amino]-3-methylbutanoyl}-4-methylpyrrolidin-2-yl]-1,11-dihydroisochromeno[4′,3′:6,7]naphtho[1,2-d]imidazol-9-yl}-1H-imidazol-2-yl)-4-methylpyrrolidin-1-yl]-3-methyl-1-oxobutan-2-yl}carbamate] | < 1 nM | 0.044 nM | 0.031 nM | < 1 nM | 0.02 nM | < 1 nM | 1.32 nM | 0.27 nM | < 1 nM | 0.035 nM | < 1 nM | 2.34 nM | 0.314 nM | < 1 nM | 0.014 nM | < 1 nM | 0.057 nM
4 | COC(=O)N[C@H](C(=O)N1C[C@@H](C)C[C@H]1c1ncc(-c2ccc3c(c2)COc2cc4c(ccc5nc([C@@H]6C[C@H](C)CN6C(=O)[C@H](NC(=O)OC)c6ccccc6)[nH]c54)cc2-3)[nH]1)C(C)C [Example NF, Methyl {(2S)-1-[(2S,4S)-2-(5-{2-[(2S,4S)-1-{(2R)-2-[(methoxycarbonyl)amino]-2-phenylacetyl}-4-methylpyrrolidin-2-yl]-1,11-dihydroisochromeno[4′,3′:6,7]naphtho[1,2-d]imidazol-9-yl}-1H-imidazol-2-yl)-4-methylpyrrolidin-1-yl]-3-methyl-1-oxobutan-2-yl}carbamate] | < 1 nM | 0.012 nM | 0.009 nM | < 1 nM | 0.011 nM | < 1 nM | 0.064 nM | 0.018 nM | < 1 nM | 0.017 nM | < 1 nM | 0.218 nM | 0.031 nM | < 1 nM | 0.006 nM | < 1 nM | 0.017 nM
5 | COC(=O)N[C@H](C(=O)N1[C@@H](C)CC[C@H]1c1ncc(-c2ccc3c(c2)COc2cc4c(ccc5nc([C@@H]6CC[C@H](C)N6C(=O)[C@@H](NC(=O)OC)C(C)C)[nH]c54)cc2-3)[nH]1)C(C)C [Example NG, Methyl {(2S)-1-[(2S,5S)-2-(5-{2-[(2S,5S)-1-{(2S)-2-[(methoxycarbonyl)amino]-3-methylbutanoyl}-5-methylpyrrolidin-2-yl]-1,11-dihydroisochromeno[4′,3′:6,7]naphtho[1,2-d]imidazol-9-yl}-1H-imidazol-2-yl)-5-methylpyrrolidin-1-yl]-3-methyl-1-oxobutan-2-yl}carbamate] | < 1 nM |  | 0.008 nM | < 1 nM | 0.006 nM | < 1 nM | 0.135 nM | 0.063 nM | < 1 nM | 0.02 nM | < 1 nM | 1.67 nM | 0.37 nM | < 1 nM | 0.01 nM | < 1 nM | 0.243 nM
6 | CC[C@H](C)[C@H](NC(=O)OC)C(=O)N1C[C@@H](COC)C[C@H]1c1nc2ccc3cc4c(cc3c2[nH]1)OCc1cc(-c2cnc([C@@H]3CC[C@H](C)N3C(=O)[C@@H](NC(=O)OC)[C@@H](C)CC)[nH]2)ccc1-4 [Example NJ, Methyl {(2S,3S)-1-[(2S,5S)-2-(5-{2-[(2S,4S)-1-{(2S,3S)-2-[(methoxycarbonyl)amino]-3-methylpentanoyl}-4-(methoxymethyl)pyrrolidin-2-yl]-1,11-dihydroisochromeno[4′,3′:6,7]naphtho[1,2-d]imidazol-9-yl}-1H-imidazol-2-yl)-5-methylpyrrolidin-1-yl]-3-methyl-1-oxopentan-2-yl}carbamate] | < 1 nM | 0.017 nM |  | < 1 nM | 0.007 nM | < 1 nM | 0.416 nM | 0.094 nM | < 1 nM | 0.019 nM | < 1 nM | 0.939 nM | 0.099 nM | < 1 nM | 0.007 nM | < 1 nM | 0.025 nM
7 | COC[C@H]1C[C@@H](c2ncc(-c3ccc4c(c3)COc3cc5c(ccc6nc([C@@H]7C[C@H](COC)CN7C(=O)[C@@H](NC(=O)OC)C(C)C)[nH]c65)cc3-4)[nH]2)N(C(=O)[C@@H](NC(=O)OC)C(C)C)C1 [Example OI, Methyl {(2S)-1-[(2S,4S)-2-(5-{2-[(2S,4S)-1-{(2S)-2-[(methoxycarbonyl)amino]-3-methylbutanoyl}-4-(methoxymethyl)pyrrolidin-2-yl]-1,11-dihydroisochromeno[4′,3′:6,7]naphtho[1,2-d]imidazol-9-yl}-1H-imidazol-2-yl)-4-(methoxymethyl)pyrrolidin-1-yl]-3-methyl-1-oxobutan-2-yl}carbamate] | < 1 nM | 0.007 nM | 0.036 nM | < 1 nM | 0.024 nM | < 1 nM | 0.629 nM | 0.178 nM | < 1 nM | 0.206 nM | < 1 nM | 0.326 nM | 0.061 nM | < 1 nM | 0.01 nM | < 1 nM | 0.086 nM
8 | COC[C@H]1C[C@@H](c2nc3ccc4cc5c(cc4c3[nH]2)OCc2cc(-c3cnc([C@@H]4CCCN4C(=O)[C@@H](NC(=O)OC)C(C)C)[nH]3)ccc2-5)N(C(=O)[C@H](N)c2ccccc2)C1 [Example OO, Methyl {(2S)-1-[(2S)-2-(5-{2-[(2S,4S)-1-[(2R)-2-amino-2-phenylacetyl]-4-(methoxymethyl)pyrrolidin-2-yl]-1,11-dihydroisochromeno[4′,3′:6,7]naphtho[1,2-d]imidazol-9-yl}-1H-imidazol-2-yl)pyrrolidin-1-yl]-3-methyl-1-oxobutan-2-yl}carbamate] | < 1 nM | 0.018 nM | 0.086 nM | < 1 nM | 0.072 nM | < 1 nM | 0.076 nM | 0.02 nM | < 1 nM | 0.028 nM | < 1 nM | 0.259 nM | 0.028 nM | < 1 nM | 0.015 nM | < 1 nM | 0.139 nM
